Among the data in patent US10287301B2 (Achillion Pharmaceuticals, Inc., priority 2015, dated 2019) are IC50 values, retold here.

The target in the assay is Human Factor D (Homo sapiens (Human), UniProt P00746). Put plainly: Human Factor D Assay. Format: biochemical. The gist of the method:
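Thioester cleavage assay: human Factor D (serum-derived, 80 nM final), substrate Z-L-Lys-SBzl with DTNB, both 100 μM final, after 5 min compound preincubation at room temperature.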

Setting [1] is: Human Factor D assay of Example 8, Table 2, read-out: IC50.
Setting [2] is: Human Factor D, Table 3, read-out: IC50.
Setting [3] is: Table 3, Human Factor D 80 nM, substrate Z-L-Lys-SBzl, read-out: IC50 (Stars).
[4] abbreviates: Human Factor D 80 nM, substrate Z-L-Lys-SBzl, read-out: IC50.

Like-named read-outs stand apart in the source and are kept apart here.

Chain of Human Factor D (P00746 26-253): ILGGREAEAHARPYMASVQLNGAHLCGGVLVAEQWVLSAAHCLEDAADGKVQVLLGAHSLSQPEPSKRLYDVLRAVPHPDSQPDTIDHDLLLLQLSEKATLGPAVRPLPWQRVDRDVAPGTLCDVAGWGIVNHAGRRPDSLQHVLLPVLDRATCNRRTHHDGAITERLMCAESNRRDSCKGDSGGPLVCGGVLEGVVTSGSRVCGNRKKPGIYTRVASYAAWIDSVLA

For `CC(=O)c1nn(CC(=O)N2C[C@H](F)C[C@H]2C(=O)Nc2cccc(Br)n2)c2ccc(-c3cnc(N)nc3)cc12` [Compound 260, (2S,4R)-1-(2-(3-acetyl-5-(2-aminopyrimidin-5-yl)-1H-indazol-1-yl)acetyl)-N-(6-bromopyridin-2-yl)-4-fluoropyrrolidine-2-carboxamide], under setting [1], the IC50 is under 1000 nM.
For `CC(=O)c1cn(CC(=O)N2C[C@H](F)C[C@H]2C(=O)Nc2cccc(Br)n2)c2ccc(-c3cnc(C(N)=O)nc3)cc12` [Compound 213, 5-(3-acetyl-1-(2-((2S,4R)-2-(6-bromopyridin-2-ylcarbamoyl)-4-fluoropyrrolidin-1-yl)-2-oxoethyl)-1H-indol-5-yl)pyrimidine-2-carboxamide], the IC50 under setting [1] is under 1000 nM.
Consider `CC(=O)c1cn(CC(=O)N2[C@@H]3C[C@@H]3C[C@H]2C(=O)Nc2cccc(Br)n2)c2ccc(-c3cnc4cc(C)nn4c3)cc12` [Compound 298, (1R,3S,5R)-2-(2-(3-acetyl-5-(2-methylpyrazolo[1,5-a]pyrimidin-6-yl)-1H-indol-1-yl)acetyl)-N-(6-bromopyridin-2-yl)-2-azabicyclo[3.1.0] hexane-3-carboxamide], for which the IC50 under setting [1] was under 1000 nM.
As for `CC(=O)c1nn(CC(=O)N2CCCC[C@@H]2C(=O)Nc2cccc(Br)n2)c2ccc(-c3cnc(C)nc3)cc12` [Compound 592, (R)-1-(2-(3-acetyl-5-(2-methylpyrimidin-5-yl)-1H-indazol-1-yl)acetyl)-N-(6-bromopyridin-2-yl)piperidine-2-carboxamide], the IC50 under setting [2] was over 10000 nM.
For the compound `Cc1cccc(NC(=O)[C@@H]2[C@H]3CC[C@H](C3)N2C(=O)Cn2cc(C(N)=O)c3cc(-c4cnc5c(c4)CCC5)ccc32)n1` [Compound 535, 5-(6,7-Dihydro-5H-cyclopenta[b]pyridin-3-yl)-1-(2-((1R,3S,4S)-3-(6-methylpyridin-2-ylcarbamoyl)-2-azabicyclo[2.2.1]heptan-2-yl)-2-oxoethyl)-1H-indole-3-carboxamide], the IC50 under setting [3] was over 10000 nM.
Take `CC(=O)c1nn(CC(=O)N2C[C@H](F)C[C@H]2C(=O)Nc2cccc(Br)n2)c2ccc(-c3cnc4c(C)cnn4c3)cc12` [Compound 268, (2S,4R)-1-(2-(3-acetyl-5-(3-methylpyrazolo[1,5-a]pyrimidin-6-yl)-1H-indazol-1-yl)acetyl)-N-(6-bromopyridin-2-yl)-4-fluoropyrrolidine-2-carboxamide]: under setting [1], the IC50 was under 1000 nM.
For the compound `CC(=O)c1nn(CC(=O)N2C[C@H](F)C[C@H]2C(=O)Nc2cccc(Br)n2)c2ccc(-c3cnc(C(N)=O)nc3)cc12` [Compound 599, 5-(3-Acetyl-1-(2-((2S,4R)-2-((6-bromopyridin-2-yl)carbamoyl)-4-fluoropyrrolidin-1-yl)-2-oxoethyl)-1H-indazol-5-yl)pyrimidine-2-carboxamide], the concentration for half-maximal inhibition (IC50) under setting [2] was under 1000 nM.
As to `CC(=O)c1nn(CC(=O)N2C[C@H](F)C[C@H]2C(=O)Nc2cc(F)ncc2Br)c2ccc(-c3cnc(C)nc3)cc12` [Compound 438, (2S,4R)-1-(2-(3-Acetyl-5-(2-methylpyrimidin-5-yl)-1H-indazol-1-yl)acetyl)-N-(5-bromo-2-fluoropyridin-4-yl)-4-fluoropyrrolidine-2-carboxamide], under setting [3], the IC50 is under 1000 nM.
In the case of `CC(=O)c1nn(CC(=O)N2C[C@H](F)C[C@H]2C(=O)Nc2cncc(Br)n2)c2ccc(-c3cnc4cc(C5CC5)nn4c3)cc12` [Compound 655, (2S,4R)-1-(2-(3-Acetyl-5-(2-cyclopropylpyrazolo[1,5-a]pyrimidin-6-yl)-1H-indazol-1-yl)acetyl)-N-(6-bromopyrazin-2-yl)-4-fluoropyrrolidine-2-carboxamide], the IC50 under setting [2] is under 1000 nM.
As for `CC(=O)c1cn(CC(=O)N2C[C@H](F)C[C@H]2C(=O)Nc2cccc(Cl)c2C(F)(F)F)c2ccc(-c3ccnnc3)cc12` [Compound 126, (2S,4R)-1-(2-(3-acetyl-5-(pyridazin-4-yl)-1H-indol-1-yl)acetyl)-N-(3-chloro-2-(trifluoromethyl)phenyl)-4-fluoropyrrolidine-2-carboxamide], the IC50 under setting [4] was over 10000 nM.
Same read-out and setting: the same measure for `CC(=O)c1cn(CC(=O)N2C[C@H](F)C[C@H]2C(=O)Nc2ccc(O)cn2)c2ccc(-c3ccnnc3)cc12` [Compound 175, (2S,4R)-1-(2-(3-acetyl-5-(pyridazin-4-yl)-1H-indol-1-yl)acetyl)-4-fluoro-N-(5-hydroxypyridin-2-yl)pyrrolidine-2-carboxamide]: over 10000 nM.
For `CC(=O)c1nn(CC(=O)N2[C@@H]3CC[C@@H](C3)[C@H]2C(=O)Nc2cccc(Br)n2)c2ccc(-c3cnc(C)nc3)cc12` [Compound 491, (1R,3S,4S)-2-(2-(3-acetyl-5-(2-methylpyrimidin-5-yl)-1H-indazol-1-yl)acetyl)-N-(6-bromopyridin-2-yl)-2-azabicyclo[2.2.1] heptane-3-carboxamide], the concentration for half-maximal inhibition (IC50) is under 1000 nM.
`CC(=O)c1cn(CC(=O)N2C[C@H](F)C[C@H]2C(=O)NCc2ccccn2)c2ccc(-c3ccnnc3)cc12` [Compound 38, (2S,4R)-1-(2-(3-acetyl-5-(pyridazin-4-yl)-1H-indol-1-yl)acetyl)-4-fluoro-N-(pyridin-2-ylmethyl) pyrrolidine-2-carboxamide]: under setting [4], the 50% inhibitory concentration (IC50) is under 1000 nM.
As for `CC(=O)c1nn(CC(=O)N2[C@@H]3C[C@@H]3C[C@H]2C(=O)Nc2cncc(Br)n2)c2ccc(-c3cnc4cc(C)nn4c3)cc12` [Compound 324, (1R,3S,5R)-2-(2-(3-acetyl-5-(2-methylpyrazolo[1,5-a]pyrimidin-6-yl)-1H-indazol-1-yl)acetyl)-N-(6-bromopyrazin-2-yl)-2-azabicyclo[3.1.0] hexane-3-carboxamide], the 50% inhibitory concentration (IC50) under setting [1] is under 1000 nM.
Consider `NC(=O)c1nn(CC(=O)N2C[C@H](F)C[C@H]2C(=O)Nc2cccc(-c3ccccc3Cl)c2F)c2ccc(-c3cnc(N4CCCC4)nc3)cc12` [Compound 10], for which the IC50 under setting [4] is under 1000 nM.
Take `CC(=O)c1nn(CC(=O)N2C[C@H](F)C[C@H]2C(=O)Nc2ccc(F)cn2)c2ccc(-c3cnc(C)nc3)cc12` [Compound 407, (2S,4R)-1-(2-(3-Acetyl-5-(2-methylpyrimidin-5-yl)-1H-indazol-1-yl)acetyl)-4-fluoro-N-(5-fluoropyridin-2-yl)pyrrolidine-2-carboxamide]: under setting [3], the IC50 was under 1000 nM.
In the case of `CC(=O)c1nn(CC(=O)N2C[C@H](F)C[C@H]2C(=O)Nc2nc(Br)ccc2C(=O)O)c2ccc(-c3cnc(C)nc3)cc12` [Compound 615, 2-((2S,4R)-1-(2-(3-Acetyl-5-(2-methylpyrimidin-5-yl)-1H-indazol-1-yl)acetyl)-4-fluoropyrrolidine-2-carboxamido)-6-bromonicotinic acid], under setting [2], the IC50 was under 1000 nM.
For `CC(=O)c1cn(CC(=O)N2C[C@H](F)C[C@H]2C(=O)NCc2ccccc2)c2ccc(-c3cnc(C)nc3)cc12` [Compound 442, (2S,4R)-1-(2-(3-Acetyl-5-(2-methylpyrimidin-5-yl)-1H-indol-1-yl)acetyl)-N-benzyl-4-fluoropyrrolidine-2-carboxamide], under setting [3], the IC50 was under 1000 nM.
With `CC(=O)c1cn(CC(=O)N2C[C@H](F)C[C@H]2C(=O)Nc2cccc(-c3ccccc3Cl)c2F)c2cc(O)c(-c3cnc(C)nc3)cc12` [Compound 320, (4R)-1-(2-(3-Acetyl-6-hydroxy-5-(2-methylpyrimidin-5-yl)-1H-indol-1-yl)acetyl)-N-(2′-chloro-2-fluoro-[1,1′-biphenyl]-3-yl)-4-fluoropyrrolidine-2-carboxamide], the IC50 under setting [1] is under 1000 nM.
As for `CNS(=O)(=O)c1ccc(Cl)c(-c2cccc(NC(=O)[C@@H]3C[C@@H](F)CN3C(=O)Cn3nc(C(C)=O)c4cc(-c5cnc(C)nc5)ccc43)c2F)c1` [Compound 342, (2S,4R)-1-(2-(3-Acetyl-5-(2-methylpyrimidin-5-yl)-1H-indazol-1-yl)acetyl)-N-(2′-chloro-2-fluoro-5′-(N-methylsulfamoyl)-[1,1′-biphenyl]-3-yl)-4-fluoropyrrolidine-2-carboxamide], the IC50 under setting [3] was under 1000 nM.
As to `NC(=O)c1nn(CC(=O)N2C[C@H](F)C[C@H]2C(=O)Nc2cccnc2O)c2ccc(-c3ccnnc3)cc12` [Compound 196, 1-(2-((2S,4R)-4-fluoro-2-(2-hydroxypyridin-3-ylcarbamoyl)pyrrolidin-1-yl)-2-oxoethyl)-5-(pyridazin-4-yl)-1H-indazole-3-carboxamide], the IC50 under setting [1] was over 10000 nM.
As for `NC(=O)c1nn(CC(=O)N2C[C@H](F)C[C@H]2C(=O)Nc2ccc3ncsc3c2)c2ccc(-c3ccnnc3)cc12` [Compound 50, 1-(2-((2S,4R)-2-(benzo[d]thiazol-6-ylcarbamoyl)-4-fluoropyrrolidin-1-yl)-2-oxoethyl)-5-(pyridazin-4-yl)-1H-indazole-3-carboxamide], the IC50 under setting [4] is over 10000 nM.
`Cc1cccc(NC(=O)[C@@H]2[C@H]3CC[C@H](C3)N2C(=O)Cn2cc(C(N)=O)c3cc(-c4n[nH]c5ccsc45)ccc32)n1` [Compound 704, 1-(2-((1R,3S,4S)-3-((6-Methylpyridin-2-yl)carbamoyl)-2-azabicyclo[2.2.1]heptan-2-yl)-2-oxoethyl)-5-(1H-thieno[3,2-c]pyrazol-3-yl)-1H-indole-3-carboxamide] returned a half-inhibitory concentration (IC50) of over 10000 nM.
For `CC(=O)c1ncc(-c2ccc3c(c2)c(C(C)=O)cn3CC(=O)N2C[C@H](F)C[C@H]2C(=O)Nc2cccc(Br)n2)cn1` [Compound 218, (2S,4R)-1-(2-(3-acetyl-5-(2-acetylpyrimidin-5-yl)-1H-indol-1-yl)acetyl)-N-(6-bromopyridin-2-yl)-4-fluoropyrrolidine-2-carboxamide], under setting [1], the IC50 was under 1000 nM.
For the compound `NC(=O)c1nn(CC(=O)N2[C@@H]3C[C@@H]3C[C@H]2C(=O)Nc2cccc(Br)n2)c2ccc(-c3cnc(N4CCCC4)nc3)cc12` [Compound 11], under setting [4], the IC50 was under 1000 nM.
On to `CC(=O)c1nn(CC(=O)N2C[C@H](F)C[C@H]2C(=O)Nc2cccc(Br)n2)c2cnc(-c3cnc(C)nc3)cc12` [Compound 633, (2S,4R)-1-(2-(3-Acetyl-5-(2-methylpyrimidin-5-yl)-1H-pyrazolo[3,4-c]pyridin-1-yl)acetyl)-N-(6-bromopyridin-2-yl)-4-fluoropyrrolidine-2-carboxamide], for which the IC50 under setting [2] is under 1000 nM.

Usually IC50 stands for the concentration at which inhibition is half-maximal.
